Earlier results, collected in patent US20220354960A1, “IMMUNE CHECKPOINT BLOCKING BISPECIFIC MOLECULES” (THE SCRIPPS RESEARCH INSTITUTE, priority 2019, published 2022).

System: melanoma
Conditions: for three-year survival of patients with melanoma: human, in vivo; for overall survival (>5 years): patients with melanoma

**Q.** For “Ipilimumab: anti-cytotoxic T-lymphocyte antigen-4 (CTLA-4) antibody”, which “three-year survival of patients with melanoma” value is on record?
**A.** ~70%

**Q.** What about the “overall survival (>5 years)” value of the same substance?
**A.** ~30%

**Q.** For “Pembrolizumab: anti-programmed cell death-1 (PD-1) antibody”, which “three-year survival of patients with melanoma” value is on record?
**A.** ~70%

**Q.** And the “overall survival (>5 years)” value?
**A.** ~30%
